Data from US12037344B2, “NLRP3 modulators” (INNATE TUMOR IMMUNITY, INC., priority 2018, dated 2024).
Where a name gives a salt, the structure may show the parent alone. Read-outs that look alike come from different tables or passages of the source.

How the values were obtained:
THP-1 cells = assay: Measurement of IL-1β production, hTRF protocol (second alternative procedure), THP-1 cells; type: cell-based, human; details: Homo sapiens, THP-1, IL-1β production, read-out: NLRP3 hILIB EC50
In short: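 Compounds, dilution series starting at a final 10 μM, were incubated 2 hours at 37° C with PMA-differentiated THP-1 cells (50 ng/ml overnight; 50,000 cells/well, 2% FBS RPMI). Released IL-1β quantified in supernatant by hTRF kit with 1:40 antibody dilution, 4° C overnight, 665/615 nm ratio.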

TLR8 = molecular target: T1, TLR8 (Homo sapiens, UniProt Q9NR97); assay: In vitro human TLR8 binding reporter assay (HEK-Blue, NF-kB/AP1-inducible SEAP); type: cell-based; details: read-out: TLR8 Agonist EC50
T1 construct: human HEK-Blue cells co-expressing a TLR7 or TLR8 gene
T1 sequence (Q9NR97 27-1041): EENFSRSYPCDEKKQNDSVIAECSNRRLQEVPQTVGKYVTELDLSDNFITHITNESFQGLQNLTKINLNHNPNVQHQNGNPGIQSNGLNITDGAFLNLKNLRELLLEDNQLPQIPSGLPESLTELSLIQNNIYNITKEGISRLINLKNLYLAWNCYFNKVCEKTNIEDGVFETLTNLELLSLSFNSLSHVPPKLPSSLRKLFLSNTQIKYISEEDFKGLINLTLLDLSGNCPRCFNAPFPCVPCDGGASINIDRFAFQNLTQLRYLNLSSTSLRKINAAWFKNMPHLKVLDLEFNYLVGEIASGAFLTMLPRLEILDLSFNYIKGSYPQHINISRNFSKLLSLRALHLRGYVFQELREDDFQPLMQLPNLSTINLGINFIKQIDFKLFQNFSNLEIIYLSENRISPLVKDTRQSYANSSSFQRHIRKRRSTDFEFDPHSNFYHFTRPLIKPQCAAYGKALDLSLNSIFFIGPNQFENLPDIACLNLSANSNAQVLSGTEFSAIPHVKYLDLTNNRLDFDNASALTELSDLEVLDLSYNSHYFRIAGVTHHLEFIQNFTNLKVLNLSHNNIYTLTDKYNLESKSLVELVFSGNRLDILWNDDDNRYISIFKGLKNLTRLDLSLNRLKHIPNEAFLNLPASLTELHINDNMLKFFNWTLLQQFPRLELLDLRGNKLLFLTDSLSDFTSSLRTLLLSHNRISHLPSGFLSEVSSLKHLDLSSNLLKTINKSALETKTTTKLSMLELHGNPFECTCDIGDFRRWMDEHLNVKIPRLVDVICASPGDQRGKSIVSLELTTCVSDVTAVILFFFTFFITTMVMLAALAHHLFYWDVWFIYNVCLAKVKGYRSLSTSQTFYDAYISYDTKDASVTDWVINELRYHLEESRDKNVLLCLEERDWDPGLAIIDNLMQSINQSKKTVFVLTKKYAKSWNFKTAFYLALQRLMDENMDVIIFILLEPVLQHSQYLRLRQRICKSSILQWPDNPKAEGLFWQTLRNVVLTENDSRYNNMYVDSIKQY
In short: (§1)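 HEK-Blue cells expressing human TLR7 or TLR8 with NF-kB/AP1-inducible SEAP reporter, plated 24 h, then compound-treated 18 h at 37° C, 5% CO2. EC50 normalized to 100% Ymax set by 50 μM reference standard.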

TLR7 = molecular target: T2, TLR7 (Homo sapiens, UniProt Q9NYK1); assay: In vitro human TLR7 binding reporter assay (HEK-Blue, NF-kB/AP1-inducible SEAP); type: cell-based; details: read-out: TLR7 Agonist EC50
T2 construct: human HEK-Blue cells co-expressing a TLR7 or TLR8 gene
T2 sequence (Q9NYK1 27-1049): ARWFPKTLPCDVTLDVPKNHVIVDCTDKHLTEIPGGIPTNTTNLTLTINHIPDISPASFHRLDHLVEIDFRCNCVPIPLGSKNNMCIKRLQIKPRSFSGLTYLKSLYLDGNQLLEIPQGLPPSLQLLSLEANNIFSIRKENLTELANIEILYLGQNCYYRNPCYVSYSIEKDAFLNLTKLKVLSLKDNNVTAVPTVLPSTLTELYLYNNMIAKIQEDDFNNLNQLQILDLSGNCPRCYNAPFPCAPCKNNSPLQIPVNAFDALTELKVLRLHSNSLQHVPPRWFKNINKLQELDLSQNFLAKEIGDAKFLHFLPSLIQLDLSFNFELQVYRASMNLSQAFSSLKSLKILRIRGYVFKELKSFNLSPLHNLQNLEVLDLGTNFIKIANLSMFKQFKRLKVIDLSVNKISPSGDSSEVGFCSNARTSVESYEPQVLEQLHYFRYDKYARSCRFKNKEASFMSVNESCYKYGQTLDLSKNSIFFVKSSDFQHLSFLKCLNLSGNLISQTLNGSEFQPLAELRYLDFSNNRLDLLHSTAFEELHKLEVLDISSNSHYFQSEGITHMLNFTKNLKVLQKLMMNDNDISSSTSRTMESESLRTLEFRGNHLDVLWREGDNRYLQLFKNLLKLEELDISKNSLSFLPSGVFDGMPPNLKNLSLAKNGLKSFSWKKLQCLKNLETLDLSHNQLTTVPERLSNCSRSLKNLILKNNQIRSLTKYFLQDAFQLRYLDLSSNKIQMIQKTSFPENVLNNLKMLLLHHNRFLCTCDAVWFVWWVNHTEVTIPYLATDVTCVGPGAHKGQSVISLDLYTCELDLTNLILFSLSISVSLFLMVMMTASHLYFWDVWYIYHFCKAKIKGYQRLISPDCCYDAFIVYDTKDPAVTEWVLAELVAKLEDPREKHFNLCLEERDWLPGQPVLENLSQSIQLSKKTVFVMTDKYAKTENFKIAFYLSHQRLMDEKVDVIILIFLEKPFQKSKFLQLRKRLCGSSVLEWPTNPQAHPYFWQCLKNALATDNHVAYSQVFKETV
In short: as §1

Row | SMILES | EC50 (THP-1 cells; human) [µM] | EC50 (TLR8; activity range class) [µM] | EC50 (TLR7; activity range class) [µM] | EC50 (THP-1 cells; human cells) [µM] | EC50 (TLR8; activity range) [µM] | EC50 (TLR7; activity range) [µM]
1 | Nc1nc2cc(-c3cc[nH]n3)ccc2c2cn(CCNc3ccccn3)nc12 [Example 194, 7-(1H-pyrazol-3-yl)-2-(2-(pyridin-2-ylamino)ethyl)-2H-pyrazolo[3,4-c]quinolin-4-amine] | 0.22 | > 100 | > 100 |  |  | 
2 | NC(=O)CCn1cc2c(N)nc3cc(-c4cc[nH]n4)ccc3c2n1 [Example 462] |  |  |  | 0.22 | > 100 | > 100
3 | CCNCCn1cc2c(N)nc3cc(-c4ccn[nH]4)ccc3c2n1 [Example 279] | 1.13 | > 100 | > 100 |  |  | 
4 | CC(C)(Cn1cc2c(N)nc3cc(-c4ccn[nH]4)ccc3c2n1)NC(=O)C1CCCO1 (stereo not drawn) [Example 262] | 0.75 | > 100 | > 100 |  |  | 
5 | Nc1nc2cc(-n3cccn3)ccc2c2[nH]c(CCCO)cc12 [Example 446] |  |  |  | 0.2 | > 100 | > 100
6 | Nc1nc2cc(-c3ccn[nH]3)ccc2c2nn(CCNC3CCC3)cc12 [Example 280] | 1.72 | > 100 | > 100 |  |  | 
7 | CC(C)NC(=O)Cn1cc2c(n1)c(N)nc1cc(-c3cc[nH]n3)ccc12 [Example 534] |  |  |  | 0.71 | > 100 | > 100
8 | CC(C)(CO)NC(=O)Cn1cc2c(n1)c(N)nc1cc(-c3cc[nH]n3)ccc12 [Example 537] |  |  |  | 2.75 | > 100 | > 100
9 | Nc1nc2cc(-c3cc[nH]n3)ccc2c2cn(CCNC(=O)[C@H]3CCCO3)nc12 [Example 177] | 2.23 | > 100 | > 100 |  |  | 
10 | CC(=O)NCCCn1cc2c(n1)c(N)nc1cc(-c3cc[nH]n3)ccc12 [Example 126] | 5.34 | > 100 | > 100 |  |  | 
11 | CC(Cn1ncc2c(N)nc3cc(-c4cc[nH]n4)ccc3c21)NS(C)(=O)=O (stereo not drawn) [Example 302] | 3.49 | > 100 | > 100 |  |  | 
12 | CN1CCOC(Cn2ncc3c(N)nc4cc(-c5cc[nH]n5)ccc4c32)C1 (stereo not drawn) [Example 231] | 1.21 | > 100 | > 100 |  |  | 
13 | CC(C)(C)OCC(O)Cn1cc2c(N)nc3cc(-c4cc[nH]n4)ccc3c2n1 (stereo not drawn) [Example 375] | 4.12 | > 100 | > 100 |  |  | 
14 | Nc1nc2cc(-c3cc[nH]n3)ccc2c2nn(C3COC3)cc12 [Example 241] | 0.46 | > 100 | > 100 |  |  | 
15 | CC(C)(Cn1cc2c(N)nc3cc(-c4ccn[nH]4)ccc3c2n1)C(=O)NCC1CCOCC1 [Example 602] |  |  |  | 21.2 | > 100 | > 100
16 | CCC(=O)NCCc1cc2c(N)nc3cc(-c4ccn[nH]4)ccc3c2[nH]1 [Example 154, N-{2-[4-amino-7-(1H-pyrazol-5-yl)-1H-pyrrolo[3,2-c]quinolin-2-yl]ethyl}propanamide] | 1 | > 100 | > 100 |  |  | 
17 | Nc1nc2cc(-c3cc[nH]n3)ccc2c2cn(Cc3ccncc3)nc12 [Example 165] | 0.14 | 20 to 100 | > 100 |  |  | 

Row | SMILES | EC50 (THP-1 cells; human) [µM] | EC50 (TLR8; activity range class) [µM] | EC50 (TLR7; activity range class) [µM] | EC50 (THP-1 cells; human cells) [µM] | EC50 (TLR8; activity range) [µM] | EC50 (TLR7; activity range) [µM]
18 | CC(C)S(=O)(=O)NCCCn1cc2c(N)nc3cc(-c4ccn[nH]4)ccc3c2n1 [Example 588] |  |  |  | 10.9 | > 100 | > 100
19 | Nc1nc2cc(-c3cc[nH]n3)ccc2c2[nH]c(CN[C@H]3CCOC3)cc12 [Example 421] |  |  |  | 0.46 | > 100 | > 100
20 | COCCN(C)C(=O)C(C)n1cc2c(N)nc3cc(-c4ccn[nH]4)ccc3c2n1 (stereo not drawn) [Example 582] |  |  |  | 3.3 | > 100 | > 100
21 | CC(CC(=O)N1CCOCC1)n1cc2c(N)nc3cc(-c4cc[nH]n4)ccc3c2n1 (stereo not drawn) [Example 616] |  |  |  | 9.56 | > 100 | > 100
22 | CC(C(=O)NC1CCC1)n1cc2c(N)nc3cc(-c4ccn[nH]4)ccc3c2n1 (stereo not drawn) [Example 562] |  |  |  | 0.7 | > 100 | > 100
23 | Nc1nc2cc(-c3cc[nH]n3)ccc2c2[nH]c(CCNC(=O)C3CCCCO3)cc12 (stereo not drawn) [Example 415] |  |  |  | 1.89 | > 100 | > 100
24 | Cc1c(CN2CCOCC2)[nH]c2c1c(N)nc1cc(-c3cc[nH]n3)ccc12 [Example 468] |  |  |  | 1.62 | > 100 | > 100
25 | Nc1nc2cc(-c3cc[nH]n3)ccc2c2c1cnn2C1CCOC1 (stereo not drawn) [Example 240] | 0.62 | > 100 | > 100 |  |  | 
26 | CC(C)(F)C(=O)N1CCOCC1Cn1cc2c(N)nc3cc(-c4ccn[nH]4)ccc3c2n1 (stereo not drawn) [Example 264] | 0.99 | > 100 | > 100 |  |  | 
27 | CC(Cn1cc2c(N)nc3cc(-c4ccn[nH]4)ccc3c2n1)C(=O)N(C)C (stereo not drawn) [Example 488, 3-(4-amino-7-(1H-pyrazol-5-yl)-2H-pyrazolo[4,3-c]quinolin-2-yl)-N,N,2-trimethylpropanamide.TFA] |  |  |  | 1.15 | > 100 | > 100
28 | COc1ccc(CNCCn2cc3c(n2)c(N)nc2cc(-c4cc[nH]n4)ccc23)cc1 [Example 111] | 2.09 | > 100 | 20 to 100 |  |  | 
29 | CC(C)(O)CCn1cc2c(n1)c(N)nc1cc(-c3ccn[nH]3)ccc12 [Example 452] |  |  |  | 0.4 | > 100 | > 100
30 | Nc1nc2cc(-c3cc[nH]n3)ccc2c2nn(CC3CCOC3)cc12 (single isomer, unassigned) [Example 327] | 0.7 | > 100 | > 100 |  |  | 
31 | Nc1nc2cc(-c3cc[nH]n3)ccc2c2cn(CCNC(=O)c3cccnc3)nc12 [Example 38] | 4.93 | > 100 | > 100 |  |  | 
32 | CC(C)NC(=O)CC(C)n1cc2c(N)nc3cc(-c4cc[nH]n4)ccc3c2n1 (stereo not drawn) [Example 615] |  |  |  | 10.4 | > 100 | > 100
33 | Cc1nc(C(=O)NC(C)(C)Cn2cc3c(N)nc4cc(-c5cc[nH]n5)ccc4c3n2)co1 [Example 467] |  |  |  | 0.94 | > 100 | > 100
34 | COC[C@@H](O)Cn1cc2c(N)nc3cc(-c4cc[nH]n4)ccc3c2n1 [Example 373] | 1.25 | > 100 | > 100 |  |  | 
